# Data taken from US20080015186A1, “PHARMACEUTICAL CO[…] C[…] CANNABINOID RECEPTOR ANTAGONIST AND AN ANTIPSYCHOTIC” (SANOFI-AVENTIS, priority 2005, published 2008).
# Test: Effect of rimonabant on the weight gain induced by treatment with risperidone (cumulative weight gain and feed consumption)
# Format: in vivo
# Details: female Wistar rats on fat-rich feed, risperidone 0.3 mg/kg i.p., rimonabant 1 mg/kg p.o. (or vehicle p.o.)
# Method: Female Wistar rats, fed with a fat-rich feed for the three days preceding the treatment and during the treatment, are used.
# Groups of 15 animals receive each day: • group 1: risperidone (0.3 mg/kg, i.p.) and the vehicle (p.o.); • group 2: risperidone (0.3 mg/kg, i.p.) and rimonabant (1 mg/kg, p.o.); • group 3: the two vehicles (i.p. and p.o.);
# On the ninth day of the treatment, the cumulative weight gain over the nine days of treatment and the feed consumption on day 9 are measured.
smiles,measurement,setting,value
Cc1nc2n(c(=O)c1CCN1CCC(c3noc4cc(F)ccc34)CC1)CCCC2 [risperidone],Cumulative weight gain over the nine days of treatment,"15/group, daily dosing for 9 days",23.5 g ± 1.7
same,Mean feed intake on the ninth day,day 9 of treatment,15.0 g ± 0.7
same,Number of rats/group (%) with a weight gain <20 g,nine days of treatment,20%
same,Number of rats/group (%) with a weight gain >20 g,nine days of treatment,80%
